In PMC5653977 (EMBO Molecular Medicine, 2017):
pIC50: −log10 of the molar value.

Tests used:
[1] = molecular target: T1, Erbb4 (Mus musculus, UniProt Q61527); test: Western blot of phospho-Erbb4 in prefrontal cortex of spironolactone-treated mice; format: in vivo; conditions: Nrg1-tg mice, 50 mg/kg s.c. daily for 21 days, prefrontal cortex lysates
T1 construct: from tissue; host or cells: prefrontal cortex of Nrg1-tg and wt mice (C57Bl/6)
Method: For the generation of lysates, the isolated tissue was immediately placed into cooled (4°C) sucrose buffer (320 mM sucrose, 10 mM Tris–HCl, 1 mM NaHCO3, 1 mM MgCl2, supplemented with 10 mM NaF, 1 mM […], 1 mM ZnCl2, 4.5 mM Na4P20_7 as phosphatase inhibitors, and the complete protease inhibitor cocktail (Roche)), homogenized using an ultra‐turrax (IKA GmbH, Staufen, Germany), sonicated (3 pulses for 10 s), and denatured for 10 min at 70°C in LDS sample buffer.
Each blot was replicated two times.
Treatment was continued throughout the behavioral analysis period.

[2] = molecular target: EGFR-NTEV-tevS-GV + ERBB2-CTEV (Homo sapiens, UniProt P00533+P04626); test: ERBB dimerization split TEV assay EGFR/ERBB2; format: cell-based; conditions: 10 ng/ml EGFld
EGFR-NTEV-tevS-GV + ERBB2-CTEV, sequence (P00533 25-1210): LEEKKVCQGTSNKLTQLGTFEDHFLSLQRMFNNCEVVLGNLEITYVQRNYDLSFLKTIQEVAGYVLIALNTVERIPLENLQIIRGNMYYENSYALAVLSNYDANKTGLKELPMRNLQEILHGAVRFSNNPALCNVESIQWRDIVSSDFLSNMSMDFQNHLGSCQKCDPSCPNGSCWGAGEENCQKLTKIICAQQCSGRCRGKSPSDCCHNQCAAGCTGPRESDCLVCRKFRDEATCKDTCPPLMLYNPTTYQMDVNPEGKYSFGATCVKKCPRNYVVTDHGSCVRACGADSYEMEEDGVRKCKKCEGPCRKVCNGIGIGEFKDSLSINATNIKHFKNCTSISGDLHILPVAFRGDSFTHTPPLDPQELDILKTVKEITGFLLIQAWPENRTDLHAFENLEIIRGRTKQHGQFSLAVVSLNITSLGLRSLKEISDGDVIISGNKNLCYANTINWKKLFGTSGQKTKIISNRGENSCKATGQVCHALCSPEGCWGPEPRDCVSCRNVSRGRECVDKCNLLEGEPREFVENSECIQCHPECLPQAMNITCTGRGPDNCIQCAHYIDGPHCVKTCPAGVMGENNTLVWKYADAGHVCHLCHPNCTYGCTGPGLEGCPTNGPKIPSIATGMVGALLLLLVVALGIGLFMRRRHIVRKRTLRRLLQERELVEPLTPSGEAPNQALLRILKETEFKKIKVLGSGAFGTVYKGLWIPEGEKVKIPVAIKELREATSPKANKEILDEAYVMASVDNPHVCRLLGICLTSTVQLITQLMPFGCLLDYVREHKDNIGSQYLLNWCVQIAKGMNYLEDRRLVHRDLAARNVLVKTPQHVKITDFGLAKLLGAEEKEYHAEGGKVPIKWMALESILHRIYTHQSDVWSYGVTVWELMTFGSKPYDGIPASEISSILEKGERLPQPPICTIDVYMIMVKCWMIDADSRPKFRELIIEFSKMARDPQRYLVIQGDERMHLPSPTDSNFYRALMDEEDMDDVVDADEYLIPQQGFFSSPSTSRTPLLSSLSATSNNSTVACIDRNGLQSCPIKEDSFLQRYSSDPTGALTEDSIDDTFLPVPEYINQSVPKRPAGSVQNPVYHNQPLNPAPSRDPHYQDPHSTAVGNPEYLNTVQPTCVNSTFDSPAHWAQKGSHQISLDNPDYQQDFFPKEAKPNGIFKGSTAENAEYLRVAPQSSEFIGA
EGFR-NTEV-tevS-GV + ERBB2-CTEV, sequence (P04626 23-1255): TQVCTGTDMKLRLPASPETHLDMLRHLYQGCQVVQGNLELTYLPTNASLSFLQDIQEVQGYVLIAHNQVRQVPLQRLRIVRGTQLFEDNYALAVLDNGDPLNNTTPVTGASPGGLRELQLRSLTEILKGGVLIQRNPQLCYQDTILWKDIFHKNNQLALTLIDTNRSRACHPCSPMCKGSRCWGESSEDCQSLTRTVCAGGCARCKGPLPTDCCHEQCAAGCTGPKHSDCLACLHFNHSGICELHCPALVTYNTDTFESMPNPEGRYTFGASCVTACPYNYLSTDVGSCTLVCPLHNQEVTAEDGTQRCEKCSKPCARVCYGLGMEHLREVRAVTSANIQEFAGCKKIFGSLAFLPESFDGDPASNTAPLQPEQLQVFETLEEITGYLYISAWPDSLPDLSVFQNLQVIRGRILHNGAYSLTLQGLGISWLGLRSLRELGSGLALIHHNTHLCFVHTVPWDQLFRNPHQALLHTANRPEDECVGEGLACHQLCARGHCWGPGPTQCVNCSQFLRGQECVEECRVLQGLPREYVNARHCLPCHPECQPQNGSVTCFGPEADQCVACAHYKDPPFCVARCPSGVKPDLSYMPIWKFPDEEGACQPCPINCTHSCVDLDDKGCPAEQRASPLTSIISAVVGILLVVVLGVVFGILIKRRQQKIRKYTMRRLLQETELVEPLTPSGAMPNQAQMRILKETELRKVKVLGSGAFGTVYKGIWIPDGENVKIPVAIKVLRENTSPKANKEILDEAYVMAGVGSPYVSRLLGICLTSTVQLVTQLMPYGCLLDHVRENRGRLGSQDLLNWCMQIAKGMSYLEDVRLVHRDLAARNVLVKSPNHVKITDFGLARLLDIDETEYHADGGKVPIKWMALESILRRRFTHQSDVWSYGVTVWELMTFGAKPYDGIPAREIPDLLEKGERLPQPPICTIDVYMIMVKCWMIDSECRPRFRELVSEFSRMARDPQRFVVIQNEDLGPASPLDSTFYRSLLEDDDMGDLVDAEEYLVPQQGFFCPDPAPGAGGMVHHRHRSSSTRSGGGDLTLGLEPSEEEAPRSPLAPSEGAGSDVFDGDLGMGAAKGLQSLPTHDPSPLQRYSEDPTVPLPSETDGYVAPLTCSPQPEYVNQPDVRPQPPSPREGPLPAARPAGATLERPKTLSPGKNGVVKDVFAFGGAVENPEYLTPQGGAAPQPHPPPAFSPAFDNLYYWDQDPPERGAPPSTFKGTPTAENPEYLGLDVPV
Source text: Gateway recombination cloning (Life Technologies) was applied for generating plasmids. Each ORF cloned was PCR‐amplified using the Pwo proofreading DNA polymerase (Roche) and BP‐recombined into the pDONR/Zeo plasmid (Life Technologies) to yield an entry vector, which was control‐digested using BsrGI to release the insert, and sequence‐verified. The following human ORFs were cloned using cDNA image clones ordered from Source BioScience: ERBB4 transcript variant JM‐a/CYT‐1 (Accession: BC112199), PIK3R1 (BC094795), GRB2 transcript variant 1 (BC000631), SHC1 transcript variant 2 (BC014158), STAT5A (BC027036), and SRC transcription variant 1 (BC051270). For EGFR, ERBB2, and ERBB3, entry vectors were obtained from the human CCSB kinase collection available from Addgene (Johannessen et al, 2010). Entry vectors were LR‐recombined into split TEV destination vectors [either pcDNA_attR1‐ORF‐attR2‐NTEV‐tevS‐GV‐2xHA_DEST or pTag4C_attR1‐ORF‐attR2‐CTEV‐2xHA_DEST, plasmids were described in detail before (Wehr et al, 2006)] to yield expression vectors, which were control‐digested using BsrGI. The plasmids for Nrg1 type I β1a and rat Nrg1 type III β1a have been described before (Wehr et al, 2006).

[3] = tested on: NRG1-ERBB4 signaling; test: Nrg1-ERBB4-PIK3R1 split TEV co-culture compound screen of the NIH Clinical Collection; format: cell-based, human; conditions: compounds at 10 μM, 24 h; PC12 split TEV assay cells co-cultured with Nrg1-expressing PC12 cells; analysed with cellHTS2

T1 sequence (Q61527 26-1308): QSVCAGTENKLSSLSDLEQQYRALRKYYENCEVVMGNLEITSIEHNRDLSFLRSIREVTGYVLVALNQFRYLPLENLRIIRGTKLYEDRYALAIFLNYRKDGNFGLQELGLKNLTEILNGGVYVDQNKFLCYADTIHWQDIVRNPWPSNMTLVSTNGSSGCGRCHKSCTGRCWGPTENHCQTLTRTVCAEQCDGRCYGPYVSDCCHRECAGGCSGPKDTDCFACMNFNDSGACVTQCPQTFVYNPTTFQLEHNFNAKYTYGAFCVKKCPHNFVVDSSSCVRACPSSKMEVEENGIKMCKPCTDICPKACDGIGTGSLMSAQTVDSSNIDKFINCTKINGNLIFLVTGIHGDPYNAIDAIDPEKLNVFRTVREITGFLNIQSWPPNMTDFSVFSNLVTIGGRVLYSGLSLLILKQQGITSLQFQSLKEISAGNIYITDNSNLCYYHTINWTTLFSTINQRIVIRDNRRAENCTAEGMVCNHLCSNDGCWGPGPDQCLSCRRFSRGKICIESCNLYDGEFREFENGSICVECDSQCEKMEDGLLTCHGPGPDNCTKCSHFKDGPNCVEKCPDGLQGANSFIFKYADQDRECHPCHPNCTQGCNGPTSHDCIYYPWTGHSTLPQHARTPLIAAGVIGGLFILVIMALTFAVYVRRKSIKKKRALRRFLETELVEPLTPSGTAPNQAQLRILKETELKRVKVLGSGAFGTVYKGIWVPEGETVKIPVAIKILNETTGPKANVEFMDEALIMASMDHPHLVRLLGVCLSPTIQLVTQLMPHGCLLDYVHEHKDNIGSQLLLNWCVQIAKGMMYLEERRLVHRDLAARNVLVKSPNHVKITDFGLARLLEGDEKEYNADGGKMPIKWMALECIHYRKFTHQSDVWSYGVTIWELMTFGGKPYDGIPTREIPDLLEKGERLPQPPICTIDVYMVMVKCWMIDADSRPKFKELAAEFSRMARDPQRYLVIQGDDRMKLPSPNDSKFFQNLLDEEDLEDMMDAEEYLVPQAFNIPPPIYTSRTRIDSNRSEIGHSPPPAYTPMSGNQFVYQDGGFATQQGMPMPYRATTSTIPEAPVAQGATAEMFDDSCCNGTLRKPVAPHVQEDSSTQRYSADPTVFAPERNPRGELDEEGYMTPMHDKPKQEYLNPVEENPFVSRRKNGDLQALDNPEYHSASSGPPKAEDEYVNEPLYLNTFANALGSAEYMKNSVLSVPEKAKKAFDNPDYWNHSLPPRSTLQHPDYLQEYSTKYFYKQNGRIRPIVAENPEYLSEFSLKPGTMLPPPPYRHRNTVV

## CC(=O)S[C@@H]1CC2=CC(=O)CC[C@]2(C)[C@H]2CC[C@@]3(C)[C@@H](CC[C@@]34CCC(=O)O4)[C@H]12 [Spironolactone]
[1]
  phospho-Erbb4 levels (p-ERBB4-Y1284 antibody): robust reduction
[2]
  pIC50: 5.33
[3]
  Z-SCORE: 9.25
